Data published in patent publication US12257326B2, “TCO conjugates and methods for delivery of therapeutic agents” (THE REGENTS OF THE UNIVERSITY OF CALIFORNIA, priority 2014, dated 2025).

Tests used:
[1] = In-vivo kinetic biodistribution of fluorescence after TCO-R-Rhodamine injection; parameters: species or system mice; settings: Tz-Me-Gel (released) vs negative control (no gel injection)
Procedure: The bar graph extrapolates the data to a presumed total amount achieved in 8 hours.
(§1) For in-vivo experiments, 800 μl of 2.5% alginate solution were mixed with 200 μl of supersaturated […] solution (0.21 g Ca(SO4)2/ml ddH2O). The solutions were mixed for 30 s using a three-way stopcock to achieve a final alginate concentration of 2%. The mixture was immediately injected to the animal in the desired amount.
After IACUC approval, in-vivo real-time biodistribution studies of fluorescence were carried out in nu/nu mice (n=2 per condition) by injecting either nothing or a type of alginate (control vs Tz-Gel). Then subjects received a tail-vein injection of TCO-R-F or TCO-NR-F. The negative controls were: 1. No gels with TCO-R-F (Negative control, mouse 1); 2. control alginate with TCO-R-F (Gel control, mouse 4). The two experimental groups were Tz-gel and either TCO-R-F (Released protocol, mouse 2) or TCO-NR-F (Immobilized protocol, mouse 3). Fluorescence was measured with an IVIS Spectrum (Perkin Elmer, MA) and reported in radiance.

[2] = In-vivo kinetic multiple dose evaluation of fluorescence (IVIS Spectrum); parameters: species or system mice; settings: 50 nmoles per tail vein injection; Tz-Me-gel group vs no gel and unmodified alginate gel; paired T-test, n=3
Procedure: Three mice were evaluated after each injection of 50 nmoles of TCO-R-Rhodamine through tail vein injection. The mice were treated as described above their images. […] The “released” subject received an injection in the subcutaneous back of Tz-Me-gel. The “gel control” subject received an injection in the subcutaneous back of alginate gel. The mice were evaluated with an IVIS Spectrum machine after 5-10 minutes and 110-150 minutes after each dose of fluorophore.
Compared by paired T-test (n=3).
as §1

CN(C)c1ccc2c(-c3ccc(C(=O)NCCNC(=O)OC4/C=C/CCCCC4)cc3C(=O)O)c3ccc(=[N+](C)C)cc-3oc2c1 (centres unmarked) [TCO-R-Rhodamine, (E)-5-((2-(((cyclooct-2-cn-1-yloxy)carbonyl)amino)ethyl)carbamoyl)-2-(3-(dimethyl-Π^4-azanylidene)-6-(dimethylamino)-3H-xanthen-9-yl)benzoic acid]
dose reflected by the area under the curve of fluorescence, extrapolated to total amount in 8 hours [1]: almost doubled | average fluorescence at 5-10 minutes vs 110-150 minutes after second, third & fourth injection [2]: statistically higher
